Results published in patent publication US20160002248A1, “GLS1 INHIBITORS FOR TREATING DISEASE” (Board of Regents, The University of Texas System, priority 2014, published 2016).

Experiments:
[1] = biological target: T1, purified recombinant human GAC (GLS1) (Homo sapiens, UniProt O94925); assay: GLS1 Enzymatic Activity Assay (dual-coupled enzymatic assay); assay type: biochemical
T1 sequence (O94925 55-598 isoform O94925-3 limits assumed): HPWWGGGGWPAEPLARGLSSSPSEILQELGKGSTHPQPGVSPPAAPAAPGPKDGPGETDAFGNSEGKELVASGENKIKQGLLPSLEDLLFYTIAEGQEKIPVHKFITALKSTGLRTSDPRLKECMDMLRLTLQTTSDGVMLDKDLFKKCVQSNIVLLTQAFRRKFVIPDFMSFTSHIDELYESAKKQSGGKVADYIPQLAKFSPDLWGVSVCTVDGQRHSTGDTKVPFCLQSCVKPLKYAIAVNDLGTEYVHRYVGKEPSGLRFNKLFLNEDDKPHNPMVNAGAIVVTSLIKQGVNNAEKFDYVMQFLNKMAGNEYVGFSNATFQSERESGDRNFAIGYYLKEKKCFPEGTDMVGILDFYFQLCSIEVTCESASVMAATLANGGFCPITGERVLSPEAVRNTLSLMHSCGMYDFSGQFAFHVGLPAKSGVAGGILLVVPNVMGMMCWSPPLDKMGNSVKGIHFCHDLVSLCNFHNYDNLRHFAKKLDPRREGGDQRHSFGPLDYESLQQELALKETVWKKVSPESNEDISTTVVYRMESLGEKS
Method in brief: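 GAC activity measured by coupling glutamate to glutamate oxidase and HRP, generating resorufin from Amplex UltraRed. Enzyme (2 nM) preincubated with 50 mM potassium phosphate 10 min at room temperature, then inhibitor 10 min; 1 mM glutamine substrate, 1% DMSO. Fluorescence 530/590 nm, kinetic or 20-min endpoint; IC50 from four-parameter logistic fit.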

A549 cells = assay: Proliferation Assay (A549 cell viability, Cell Titer Fluor); assay type: cell-based; conditions: Homo sapiens, 72 hours
Method in brief: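 Compound exposure lasted 72 h (final DMSO 0.5% v/v) on A549 cells plated at 1000 cells/well one day earlier. Cell Titer Fluor added, 30 min at 37 °C, fluorescence read; EC50 derived by four-parameter logistic curve fitting.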

Row | SMILES | IC50 [1] [nM] | EC50 (A549 cells) [nM]
1 | O=C(NCc1cccc(C(F)(F)F)n1)c1cn(CCCCc2cc3c(C4CC4)c(C4CC4)[nH]c3nn2)nn1 [Example 211, 1-(4-{5,6-dicyclopropyl-7H-pyrrolo[2,3-c]pyridazin-3-yl}butyl)-N-{[6-(trifluoromethyl)pyridin-2-yl]methyl}-1H-1,2,3-triazole-4-carboxamide] | < 100 | 100 to 500
2 | O=C(NCc1cncc(C(F)(F)F)c1)c1cn(CCCCc2cc3c(C4CC4)c(C4CC4)[nH]c3nn2)nn1 [Example 212, 1-(4-{5,6-dicyclopropyl-7H-pyrrolo[2,3-c]pyridazin-3-yl}butyl)-N-{[5-(trifluoromethyl)pyridin-3-yl]methyl}-1H-1,2,3-triazole-4-carboxamide] | < 100 | 100 to 500
3 | CC(C)(O)c1ccc(CNC(=O)c2cn(CCCCc3cc4c(C5CC5)c(C5CC5)[nH]c4nn3)nn2)cn1 [Example 213, 1-(4-{5,6-dicyclopropyl-7H-pyrrolo[2,3-c]pyridazin-3-yl}butyl)-N-{[6-(2-hydroxypropan-2-yl)pyridin-3-yl]methyl}-1H-1,2,3-triazole-4-carboxamide] | < 100 | 100 to 500
4 | O=C(NCc1ccc(CF)nc1)c1cn(CCCCc2cc3c(C4CC4)c(C4CC4)[nH]c3nn2)nn1 [Example 214, 1-(4-{5,6-dicyclopropyl-7H-pyrrolo[2,3-c]pyridazin-3-yl}butyl)-N-{[6-(fluoromethyl)pyridin-3-yl]methyl}-1H-1,2,3-triazole-4-carboxamide] | < 100 | 100 to 500
5 | Cc1ccc(CNC(=O)c2cn(CCCCc3cc4cc(-c5ccccc5C(F)(F)F)[nH]c4nn3)nn2)cn1 [Example 215, N-[(6-methylpyridin-3-yl)methyl]-1-(4-{6-[2-(trifluoromethyl)phenyl]-7H-pyrrolo[2,3-c]pyridazin-3-yl}butyl)-1H-1,2,3-triazole-4-carboxamide] | < 100 | 100 to 500
6 | O=C(NCc1cc(C(F)(F)F)ccn1)c1cn(CCCCc2cc3c(C4CC4)c(C4CCCC4)[nH]c3nn2)nn1 [Example 216, 1-(4-{6-cyclopentyl-5-cyclopropyl-7H-pyrrolo[2,3-c]pyridazin-3-yl}butyl)-N-{[4-(trifluoromethyl)pyridin-2-yl]methyl}-1H-1,2,3-triazole-4-carboxamide] | < 100 | 100 to 500
7 | O=C(NCc1ccc(C(F)(F)F)nc1)c1cn(CCCCc2cc3c(-c4ccc(F)cc4F)c(C4CC4)[nH]c3nn2)nn1 [Example 217, 1-(4-(6-cyclopropyl-5-(2,4-difluorophenyl)-7H-pyrrolo[2,3-c]pyridazin-3-yl)butyl)-N-((6-(trifluoromethyl)pyridin-3-yl)methyl)-1H-1,2,3-triazole-4-carboxamide] | < 100 | 100 to 500
8 | O=C(NCc1ccc(C(F)(F)F)cn1)c1cn(CCCCc2cc3c(-c4ccc(F)cc4F)c(C4CC4)[nH]c3nn2)nn1 [Example 218, 1-{4-[6-cyclopropyl-5-(2,4-difluorophenyl)-7H-pyrrolo[2,3-c]pyridazin-3-yl]butyl}-N-{[5-(trifluoromethyl)pyridin-2-yl]methyl}-1H-1,2,3-triazole-4-carboxamide] | < 100 | 100 to 500
9 | O=C(NCc1cc(C(F)(F)F)ccn1)c1cn(CCCCc2cc3c(-c4ccc(F)cc4F)c(C4CC4)[nH]c3nn2)nn1 [Example 219, 1-{4-[6-cyclopropyl-5-(2,4-difluorophenyl)-7H-pyrrolo[2,3-c]pyridazin-3-yl]butyl}-N-{[4-(trifluoromethyl)pyridin-2-yl]methyl}-1H-1,2,3-triazole-4-carboxamide] | < 100 | < 100
10 | O=C(NCc1cccc(C(F)(F)F)n1)c1cn(CCCCc2cc3c(-c4ccc(F)cc4F)c(C4CC4)[nH]c3nn2)nn1 [Example 220, 1-{4-[6-cyclopropyl-5-(2,4-difluorophenyl)-7H-pyrrolo[2,3-c]pyridazin-3-yl]butyl}-N-{[6-(trifluoromethyl)pyridin-2-yl]methyl}-1H-1,2,3-triazole-4-carboxamide] | < 100 | 100 to 500

The next lines start with the values.

Row | IC50 [1] [nM] | EC50 (A549 cells) [nM] | SMILES
11 | < 100 | 500 to 5000 | Cc1ccc(CNC(=O)c2cn(CCCCc3cc4c(C5=CCN(C(=O)OC(C)(C)C)CC5)c(C5CC5)[nH]c4nn3)nn2)cn1 [Example 198, tert-butyl 4-(6-cyclopropyl-3-[4-(4-{[(6-methylpyridin-3-yl)methyl]carbamoyl}-1H-1,2,3-triazol-1-yl)butyl]-7H-pyrrolo[2,3-c]pyridazin-5-yl}-1,2,3,6-tetrahydropyridine-1-carboxylate]
12 | < 100 | 100 to 500 | CC(C)OC(=O)N1CC(c2cc3cc(CCCCn4cc(C(=O)NCc5cc(C(F)(F)F)ccn5)nn4)nnc3[nH]2)C1 [Example 200, propan-2-yl 3-(3-{4-[4-({[4-(trifluoromethyl)pyridin-2-yl]methyl}carbamoyl)-1H-1,2,3-triazol-1-yl]butyl}-7H-pyrrolo[2,3-c]pyridazin-6-yl)azetidine-1-carboxylate]
13 | < 100 | 100 to 500 | CC(C)(C)OC(=O)N1CC(c2cc3cc(CCCCn4cc(C(=O)NCc5ccc(C(F)(F)F)cn5)nn4)nnc3[nH]2)C1 [Example 201, tert-butyl 3-(3-{4-[4-({[5-(trifluoromethyl)pyridin-2-yl]methyl)carbamoyl)-1H-1,2,3-triazol-1-yl]butyl}-7H-pyrrolo[2,3-c]pyridazin-6-yl)azetidine-1-carboxylate]
14 | < 100 | 100 to 500 | Cc1ccc(CNC(=O)c2cn(CCCCc3cc4cc(-c5cccc(F)c5)[nH]c4nn3)nn2)cn1 [Example 202, 1-{4-[6-(3-fluorophenyl)-7H-pyrrolo[2,3-c]pyridazin-3-yl]butyl}-N-[(6-methylpyridin-3-yl)methyl]-1H-1,2,3-triazole-4-carboxamide]
15 | < 100 | 100 to 500 | Cc1ccc(CNC(=O)c2cn(CCCCc3cc4cc(-c5cccc(C(F)(F)F)c5)[nH]c4nn3)nn2)cn1 [Example 203, N-[(6-methylpyridin-3-yl)methyl]-1-(4-{6-[3-(trifluoromethyl)phenyl]-7H-pyrrolo[2,3-c]pyridazin-3-yl}butyl)-1H-1,2,3-triazole-4-carboxamide]
16 | < 100 | 500 to 5000 | O=C(NCc1cccc(OC(F)(F)F)c1)c1cn(CCCCc2cc3cc(-c4ccccc4F)[nH]c3nn2)nn1 [Example 204, 1-{4-[6-(2-fluorophenyl)-7H-pyrrolo[2,3-c]pyridazin-3-yl]butyl}-N-{[3-(trifluoromethoxy)phenyl]methyl}-1H-1,2,3-triazole-4-carboxamide]
17 | < 100 | 100 to 500 | O=C(NCc1cc(OC(F)(F)F)ccc1F)c1cn(CCCCc2cc3cc(-c4ccccc4F)[nH]c3nn2)nn1 [Example 205, N-{[2-fluoro-5-(trifluoromethoxy)phenyl]methyl}-1-(4-[6-(2-fluorophenyl)-7H-pyrrolo[2,3-c]pyridazin-3-yl]butyl)-1H-1,2,3-triazole-4-carboxamide]
18 | < 100 | 100 to 500 | CC(C)OC(=O)N1CC(c2cc3cc(CCCCn4cc(C(=O)NCc5ccc(C(F)(F)F)cn5)nn4)nnc3[nH]2)C1 [Example 206, propan-2-yl 3-(3-{4-[4-({[5-(trifluoromethyl)pyridin-2-yl]methyl}carbamoyl)-1H-1,2,3-triazol-1-yl]butyl}-7H-pyrrolo[2,3-c]pyridazin-6-yl)azetidine-1-carboxylate]
19 | < 100 | 100 to 500 | O=C(NCc1ccc(C(F)(F)F)nc1)c1cn(CCCCc2cc3c(C4CC4)c(C4CC4)[nH]c3nn2)nn1 [Example 207, 1-(4-{5,6-dicyclopropyl-7H-pyrrolo[2,3-c]pyridazin-3-yl}butyl)-N-{[6-(trifluoromethyl)pyridin-3-yl]methyl}-1H-1,2,3-triazole-4-carboxamide]
20 | < 100 | 100 to 500 | O=C(NCc1ccc(C(F)(F)F)cn1)c1cn(CCCCc2cc3c(C4CC4)c(C4CC4)[nH]c3nn2)nn1 [Example 208, 1-(4-{5,6-dicyclopropyl-7H-pyrrolo[2,3-c]pyridazin-3-yl}butyl)-N-{[5-(trifluoromethyl)pyridin-2-yl]methyl}-1H-1,2,3-triazole-4-carboxamide]
21 | < 100 | 100 to 500 | Cc1ccc(CNC(=O)c2cn(CCCCc3cc4cc(-c5ccccc5)[nH]c4nn3)nn2)cn1 [Example 209, N-[(6-methylpyridin-3-yl)methyl]-1-(4-{6-phenyl-7H-pyrrolo[2,3-c]pyridazin-3-yl}butyl)-1H-1,2,3-triazole-4-carboxamide]
22 | < 100 | 100 to 500 | O=C(NCc1cc(C(F)(F)F)ccn1)c1cn(CCCCc2cc3c(C4CC4)c(C4CC4)[nH]c3nn2)nn1 [Example 210, 1-(4-{5,6-dicyclopropyl-7H-pyrrolo[2,3-c]pyridazin-3-yl}butyl)-N-{[4-(trifluoromethyl)pyridin-2-yl]methyl}-1H-1,2,3-triazole-4-carboxamide]
